Source: article PMC8160875 (Molecules, 2021)

Tests used:
LO2 cells = test: MTT cytotoxicity assay, normal cell line LO2; type: cell-based, human; details: for IC50: L02, human normal cell line LO2, MTT, average of three determinations; for Selectivity IC50(LO2)/IC50(A549): ratio IC50(LO2)/IC50(A549)
From the text: (§1) Four human tumor cell lines (A549, H1975, NCI-H460, and MCF-7) and human normal cell line LO2 were selected to evaluate the antiproliferative activity of all target compounds in vitro. Olmutinib was used as a positive control. Results are summarized in Table 1, where the values are the average of at least three independent experiments. […] However, the antiproliferative activities of the compounds that were substituted with the anisidine side chain performed better than the cyano group chain.

H1975 cells = test: MTT cytotoxicity assay, H1975; type: cell-based; details: Homo sapiens, NCI-H1975, H1975 cell line, average of three determinations
From the text: as §1

MCF-7 cells = test: MTT cytotoxicity assay, MCF-7; type: cell-based; details: Homo sapiens, MCF7, MCF-7 cell line, average of three determinations
From the text: as §1

NCI-H460 cells = test: MTT cytotoxicity assay, NCI-H460; type: cell-based; details: Homo sapiens, NCI-H460 cell line, average of three determinations
From the text: as §1

A549 cells = test: MTT cytotoxicity assay, A549; type: cell-based; details: Homo sapiens, A549 cell line, average of three determinations
From the text: as §1

EGFR^T790M/L858R = EGFR^T790M/L858R (Homo sapiens, UniProt P00533, L858R/T790M); test: Kinase-Glo Luminescent Kinase Assay, EGFR T790M/L858R; type: biochemical; details: average of three determinations
PI3Kα = PI3Kα (Homo sapiens, UniProt P42336); test: Kinase-Glo Luminescent Kinase Assay, PI3Kα; type: biochemical; details: average of three determinations
Description: Compounds H7 and H10 had excellent antiproliferative activity and were further screened out for kinase inhibition testing. We evaluated compounds H7 and H10 with EGFR^T790M/L858R kinases and PI3Kα kinases.
The specific operation was carried out according to our previous research.

[1] = quoted in the introduction; cited from earlier work
[2] = test system: HCC827 (EGFR^dell19) cells; details: quoted in the introduction; read-out: IC50 against HCC827 (EGFR^dell19) cells; cited from earlier work
[3] = test system: H1975 (EGFR^L858R/T790M) cells; details: quoted in the introduction; read-out: IC50 against H1975 (EGFR^L858R/T790M) cells; cited from earlier work
A549 (EGFR^WT) cells = details: quoted in the introduction; read-out: IC50 against A549 (EGFR^WT) cells; cited from earlier work

Chain of PI3Kα (P42336 whole entry): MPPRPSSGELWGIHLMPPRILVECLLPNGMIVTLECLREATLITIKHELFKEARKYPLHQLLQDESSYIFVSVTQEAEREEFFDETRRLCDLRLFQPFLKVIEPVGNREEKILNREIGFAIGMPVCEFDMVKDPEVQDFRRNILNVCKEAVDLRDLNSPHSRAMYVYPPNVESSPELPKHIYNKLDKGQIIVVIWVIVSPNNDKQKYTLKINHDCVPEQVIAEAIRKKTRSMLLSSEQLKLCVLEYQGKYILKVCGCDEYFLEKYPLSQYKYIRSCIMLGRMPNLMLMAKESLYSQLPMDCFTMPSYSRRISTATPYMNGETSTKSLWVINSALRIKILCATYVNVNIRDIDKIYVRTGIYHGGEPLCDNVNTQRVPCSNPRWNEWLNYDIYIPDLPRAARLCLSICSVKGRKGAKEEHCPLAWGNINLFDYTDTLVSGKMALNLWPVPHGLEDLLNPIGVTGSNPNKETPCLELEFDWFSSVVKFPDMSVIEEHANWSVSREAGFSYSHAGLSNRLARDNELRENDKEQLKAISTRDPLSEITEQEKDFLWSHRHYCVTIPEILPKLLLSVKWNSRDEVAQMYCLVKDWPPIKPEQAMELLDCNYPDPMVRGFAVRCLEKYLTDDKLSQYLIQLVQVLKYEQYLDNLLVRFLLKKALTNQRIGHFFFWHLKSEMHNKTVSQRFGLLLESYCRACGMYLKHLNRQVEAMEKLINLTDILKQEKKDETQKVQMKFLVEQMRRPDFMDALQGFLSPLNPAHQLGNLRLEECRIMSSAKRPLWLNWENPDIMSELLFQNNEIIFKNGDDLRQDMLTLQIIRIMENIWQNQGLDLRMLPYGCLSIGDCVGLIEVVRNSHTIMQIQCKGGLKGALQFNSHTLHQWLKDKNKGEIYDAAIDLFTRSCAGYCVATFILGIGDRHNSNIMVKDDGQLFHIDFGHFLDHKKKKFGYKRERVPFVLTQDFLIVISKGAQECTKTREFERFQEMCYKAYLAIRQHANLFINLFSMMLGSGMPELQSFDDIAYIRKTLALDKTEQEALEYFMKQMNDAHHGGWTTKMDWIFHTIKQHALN
Chain of PI3Kα (P27986 whole entry partner): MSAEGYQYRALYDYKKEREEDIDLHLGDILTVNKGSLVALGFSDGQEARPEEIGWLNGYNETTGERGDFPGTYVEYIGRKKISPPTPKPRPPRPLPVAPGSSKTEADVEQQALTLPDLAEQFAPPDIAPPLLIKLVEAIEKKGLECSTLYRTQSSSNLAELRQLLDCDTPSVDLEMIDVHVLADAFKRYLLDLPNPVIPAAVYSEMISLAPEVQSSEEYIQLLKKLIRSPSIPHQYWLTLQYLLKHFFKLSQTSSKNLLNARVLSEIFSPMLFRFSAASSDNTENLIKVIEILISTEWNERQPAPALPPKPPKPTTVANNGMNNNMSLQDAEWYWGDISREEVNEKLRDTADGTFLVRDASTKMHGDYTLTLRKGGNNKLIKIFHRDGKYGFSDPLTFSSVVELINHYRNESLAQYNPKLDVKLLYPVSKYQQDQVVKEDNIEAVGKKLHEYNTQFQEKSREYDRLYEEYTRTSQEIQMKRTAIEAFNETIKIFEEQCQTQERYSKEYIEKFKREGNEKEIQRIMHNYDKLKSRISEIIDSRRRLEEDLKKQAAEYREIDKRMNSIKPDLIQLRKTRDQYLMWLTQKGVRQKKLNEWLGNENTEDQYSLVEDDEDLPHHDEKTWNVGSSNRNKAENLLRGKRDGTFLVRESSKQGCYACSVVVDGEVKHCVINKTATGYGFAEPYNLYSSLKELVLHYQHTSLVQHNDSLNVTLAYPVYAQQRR
Chain of EGFR^T790M/L858R (P00533 25-1210 T790M/L858R): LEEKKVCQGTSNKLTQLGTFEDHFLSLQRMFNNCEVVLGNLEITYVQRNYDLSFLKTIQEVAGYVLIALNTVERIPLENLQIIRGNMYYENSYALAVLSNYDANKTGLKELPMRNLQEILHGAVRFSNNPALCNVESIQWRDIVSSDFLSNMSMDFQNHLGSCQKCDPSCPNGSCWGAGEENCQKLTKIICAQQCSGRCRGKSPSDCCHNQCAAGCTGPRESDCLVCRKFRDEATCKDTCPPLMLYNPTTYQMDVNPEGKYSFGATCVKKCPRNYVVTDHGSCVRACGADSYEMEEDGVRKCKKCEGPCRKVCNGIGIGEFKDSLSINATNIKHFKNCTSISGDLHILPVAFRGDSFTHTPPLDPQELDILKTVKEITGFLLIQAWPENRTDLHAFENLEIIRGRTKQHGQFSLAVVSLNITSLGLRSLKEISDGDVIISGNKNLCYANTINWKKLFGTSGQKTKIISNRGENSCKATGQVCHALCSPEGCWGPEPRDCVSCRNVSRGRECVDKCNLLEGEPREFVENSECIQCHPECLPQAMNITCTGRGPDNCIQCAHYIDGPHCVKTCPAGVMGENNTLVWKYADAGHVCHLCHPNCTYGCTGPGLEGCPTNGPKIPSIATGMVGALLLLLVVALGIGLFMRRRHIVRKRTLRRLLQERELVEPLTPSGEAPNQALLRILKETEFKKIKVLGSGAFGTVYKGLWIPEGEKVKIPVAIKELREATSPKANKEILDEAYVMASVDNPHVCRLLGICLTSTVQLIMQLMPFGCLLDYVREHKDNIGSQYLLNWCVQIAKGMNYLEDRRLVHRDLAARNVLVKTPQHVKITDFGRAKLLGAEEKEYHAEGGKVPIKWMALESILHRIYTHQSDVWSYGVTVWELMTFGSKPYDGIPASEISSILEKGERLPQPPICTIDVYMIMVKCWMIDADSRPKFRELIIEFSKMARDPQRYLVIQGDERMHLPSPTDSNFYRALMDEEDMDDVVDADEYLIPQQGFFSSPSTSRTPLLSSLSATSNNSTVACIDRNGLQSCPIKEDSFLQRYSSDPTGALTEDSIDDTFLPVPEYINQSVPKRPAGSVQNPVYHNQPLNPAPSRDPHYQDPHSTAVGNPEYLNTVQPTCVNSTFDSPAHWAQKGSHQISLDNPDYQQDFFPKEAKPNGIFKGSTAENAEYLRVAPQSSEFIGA

SMILES | IC50 (LO2 cells) | Selectivity IC50(LO2)/IC50(A549) (LO2 cells) | IC50 (H1975 cells) | IC50 (MCF-7 cells) | IC50 (NCI-H460 cells) | IC50 (A549 cells) | IC50 (EGFR^T790M/L858R) | IC50 (PI3Kα) | melting point | toxic side effects [1] | IC50 [2] | IC50 [3] | IC50 (A549 (EGFR^WT) cells) | Selectivity (A549 vs LO2) relative to that of olmutinib (LO2 cells; fold of the selectivity of the lead compound olmutinib)
C=CC(=O)Nc1cccc(Oc2cc(-c3cccs3)nc(Nc3cccc(C#N)c3)n2)c1 [Compound H1, N-(3-((2-((3-cyanophenyl)amino)-6-(thiophen-2-yl)pyrimidin-4-yl)oxy)phenyl)acrylamide] | > 100 µM | >22.57 | 9.64 ± 1.01 µM | 19 ± 1.71 µM | 13.1 ± 1.17 µM | 4.43 ± 0.5 µM | – | – | – | – | – | – | – | –
C/C=C/C(=O)Nc1cccc(Oc2nc(-c3ccc(CN(CC)CC)s3)nc(N3CCOCC3)n2)c1 [Compound H14, (E)-N-(3-((4-(5-((diethylamino)methyl)thiophen-2-yl)-6-morpholino-1,3,5-triazin-2-yl)oxy)phenyl)but-2-enamide] | > 100 µM | – | 17.8 ± 1.34 µM | 41.6 ± 1.61 µM | 46.2 ± 1.43 µM | 20.6 ± 2.3 µM | – | – | – | – | – | – | – | –
C/C=C/C(=O)Nc1cccc(Oc2cc(-c3cccs3)nc(Nc3cccc(OC)c3)n2)c1 [Compound H7, (E)-N-(3-((2-((3-methoxyphenyl)amino)-6-(thiophen-2-yl)pyrimidin-4-yl)oxy)phenyl)but-2-enamide] | > 100 µM | >22.88 | 4.59 ± 0.46 µM | 19.2 ± 1.12 µM | 13.5 ± 0.52 µM | 4.37 ± 0.5 µM | 0.63 µM | > 10 µM | 231.7 to 234.3 °C | – | – | – | – | –
CC(C)=CC(=O)Nc1cccc(Oc2nc(-c3ccc(CN(C)C)s3)nc(N3CCOCC3)n2)c1 [Compound H11, N-(3-((4-(5-((dimethylamino)methyl)thiophen-2-yl)-6-morpholino-1,3,5-triazin-2-yl)oxy)phenyl)-3-methylbut-2-enamide] | > 100 µM | >7.39 | 5.57 ± 1.53 µM | 25.8 ± 1.31 µM | 19.7 ± 1.16 µM | 13.5 ± 1.13 µM | – | – | – | – | – | – | – | –
CC(C)/C=C/C(=O)Nc1cccc(Oc2cc(-c3cccs3)nc(Nc3cccc(C#N)c3)n2)c1 [Compound H6, (E)-N-(3-((2-((3-cyanophenyl)amino)-6-(thiophen-2-yl)pyrimidin-4-yl)oxy)phenyl)-4-methylpent-2-enamide] | > 100 µM | >6.43 | 11.9 ± 1.11 µM | 17.7 ± 1.01 µM | 18.1 ± 0.71 µM | 15.6 ± 0.81 µM | – | – | 223.1 to 225.4 °C | – | – | – | – | –
C=C(C)C(=O)Nc1cccc(Oc2nc(-c3ccc(CN(CC)CC)s3)nc(N3CCOCC3)n2)c1 [Compound H13, N-(3-((4-(5-((diethylamino)methyl)thiophen-2-yl)-6-morpholino-1,3,5-triazin-2-yl)oxy)phenyl)methacrylamide] | > 100 µM | – | 21.5 ± 1.21 µM | 32.5 ± 1.73 µM | 54.5 ± 2.86 µM | 23.4 ± 1.89 µM | – | – | – | – | – | – | – | –
CCN(CC)Cc1ccc(-c2nc(Oc3cccc(NC(=O)C=C(C)C)c3)nc(N3CCOCC3)n2)s1 [Compound H15, N-(3-((4-(5-((diethylamino)methyl)thiophen-2-yl)-6-morpholino-1,3,5-triazin-2-yl)oxy)phenyl)-3-methylbut-2-enamide] | > 100 µM | >4.68 | 19.5 ± 1.55 µM | 38.5 ± 1.78 µM | 62.4 ± 2.94 µM | 21.4 ± 1.58 µM | – | – | 215.2 to 217.1 °C | – | – | – | – | –
CCC/C=C/C(=O)Nc1cccc(Oc2cc(-c3cccs3)nc(Nc3cccc(C#N)c3)n2)c1 [Compound H4, (E)-N-(3-((2-((3-cyanophenyl)amino)-6-(thiophen-2-yl)pyrimidin-4-yl)oxy)phenyl)hex-2-enamide] | > 100 µM | >2.70 | 25.1 ± 1.3 µM | 27 ± 1.63 µM | 23.4 ± 1.49 µM | 37.1 ± 1.19 µM | – | – | 209.6 to 211.4 °C | – | – | – | – | –
CCN(CC)Cc1ccc(-c2nc(Oc3cccc(NC(=O)/C=C/C(C)C)c3)nc(N3CCOCC3)n2)s1 [Compound H16, (E)-N-(3-((4-(5-((diethylamino)methyl)thiophen-2-yl)-6-morpholino-1,3,5-triazin-2-yl)oxy)phenyl)-4-methylpent-2-enamide] | > 100 µM | >2.77 | 15.6 ± 2.55 µM | 51.8 ± 1.27 µM | 30.3 ± 1.68 µM | 36.1 ± 1.61 µM | – | – | – | – | – | – | – | –
CC(C)=CC(=O)Nc1cccc(Oc2cc(-c3cccs3)nc(Nc3cccc(C#N)c3)n2)c1 [Compound H3, N-(3-((2-((3-cyanophenyl)amino)-6-(thiophen-2-yl)pyrimidin-4-yl)oxy)phenyl)-3-methylbut-2-enamide] | > 100 µM | >3.61 | 21.9 ± 1.33 µM | 35.8 ± 1.64 µM | 25.8 ± 1.38 µM | 27.7 ± 1.24 µM | – | – | 215.5 to 218.7 °C | – | – | – | – | –
C=CC(=O)Nc1cccc(Oc2nc(Nc3ccc(N4CCN(C)CC4)cc3)nc3ccsc23)c1 [Olmutinib, olmutinib, reference compound] | 25.8 ± 1.31 µM | – | 0.52 ± 0.1 µM | 26.9 ± 0.93 µM | 5.29 ± 0.59 µM | 4.29 ± 0.21 µM | – | > 10 µM | – | palmoplantar keratoderma and diarrhea | 0.0092 µM | 0.01 µM | 0.225 µM | –
C/C=C/C(=O)Nc1cccc(Oc2nc(-c3ccc(CN(C)C)s3)nc(N3CCOCC3)n2)c1 [Compound H10, (E)-N-(3-((4-(5-((dimethylamino)methyl)thiophen-2-yl)-6-morpholino-1,3,5-triazin-2-yl)oxy)phenyl)but-2-enamide] | > 100 µM | >29.76 | 1.16 ± 1.53 µM | 13.1 ± 1.36 µM | 10.7 ± 2.02 µM | 3.36 ± 1.59 µM | 0.25 µM | 8.56 µM | 202.4 to 203.7 °C | – | – | – | – | about 5 times
C=CC(=O)Nc1cccc(Oc2nc(-c3ccc(CN(C)C)s3)nc(N3CCOCC3)n2)c1 [Compound H9, N-(3-((4-(5-((dimethylamino)methyl)thiophen-2-yl)-6-morpholino-1,3,5-triazin-2-yl)oxy)phenyl)acrylamide] | > 100 µM | – | 12.8 ± 1.25 µM | 53.9 ± 1.73 µM | 28.2 ± 1.78 µM | 23.5 ± 1.43 µM | – | – | – | – | – | – | – | –
CC(C)/C=C/C(=O)Nc1cccc(Oc2nc(-c3ccc(CN(C)C)s3)nc(N3CCOCC3)n2)c1 [Compound H12, (E)-N-(3-((4-(5-((dimethylamino)methyl)thiophen-2-yl)-6-morpholino-1,3,5-triazin-2-yl)oxy)phenyl)-4-methylpent-2-enamide] | > 100 µM | >4.57 | 13.6 ± 1.94 µM | 64 ± 1.8 µM | 23.8 ± 2.05 µM | 21.9 ± 1.54 µM | – | – | 199.7 to 201.3 °C | – | – | – | – | –
COc1cccc(Nc2nc(Oc3cccc(NC(=O)/C=C/C(C)C)c3)cc(-c3cccs3)n2)c1 [Compound H8, (E)-N-(3-((2-((3-methoxyphenyl)amino)-6-(thiophen-2-yl)pyrimidin-4-yl)oxy)phenyl)-4-methylpent-2-enamide] | > 100 µM | >5.26 | 21.5 ± 1.21 µM | 49.1 ± 2.13 µM | 24.1 ± 1.28 µM | 19 ± 1.34 µM | – | – | 217.9 to 219.1 °C | – | – | – | – | –
C=C(F)C(=O)Nc1cccc(Oc2cc(-c3cccs3)nc(Nc3cccc(C#N)c3)n2)c1 [Compound H5, N-(3-((2-((3-cyanophenyl)amino)-6-(thiophen-2-yl)pyrimidin-4-yl)oxy)phenyl)-2-fluoroacrylamide] | > 100 µM | – | > 100 µM | > 100 µM | > 100 µM | > 100 µM | – | – | 222.9 to 226.8 °C | – | – | – | – | –
C/C=C/C(=O)Nc1cccc(Oc2cc(-c3cccs3)nc(Nc3cccc(C#N)c3)n2)c1 [Compound H2, (E)-N-(3-((2-((3-cyanophenyl)amino)-6-(thiophen-2-yl)pyrimidin-4-yl)oxy)phenyl)but-2-enamide] | 87.9 ± 1.67 µM | 8.38 | 12.5 ± 1.09 µM | 14.6 ± 1.19 µM | 16.4 ± 0.98 µM | 10.5 ± 1.17 µM | – | – | 201.2 to 205.9 °C | – | – | – | – | –
